The record followed here is patent US20170360897A1, “POLYPEPTIDE AND POLYPEPTIDE COMPLEX FOR SUPPRESSING TUMOR METASTASIS AND TREATING LEUKEMIA AS WELL AS PREPARATION METHOD THEREFOR AND APPLICATION THEREOF” (National Center for Nanoscience and Technology, China, priority 2014, published 2017).

For one assay, the system named is HL-60 cells. Particulars: CXCL12 200 ng/mL, 24 h. The protocol:
(§1) HL-60 and U937 cells were harvested in logarithmic growth phase and suspended in RPMI-1640 medium without FBS. 200 μL of the suspension containing 20×10^4 cells and aqueous solutions of E5 at different concentrations were added to the upper chamber of a trans well chamber (PET microporous filter membrane with a diameter of […] was used for HL-60, and PET microporous filter membrane with a diameter of 5 μm was used for U937) so that the final concentration of the polypeptide molecule was 0.1 μM, 1.0 μM, and 10 μM respectively, and an aqueous solution was added for use as a blank control. 800 μL of the RPMI-1640 medium without FBS was added to the lower chamber, along with adding aqueous solutions of CXCL12 at concentrations of 200 ng/mL and 50 ng/mL respectively to induce HL-60 and U937 cells. The culture plates were incubated in an incubator under 37° C., 5% CO2 for 24 h. The trans well chambers were removed and the number of the migrated cells in the lower chamber was calculated.

Another assay deals with U937 cells. To be noted: CXCL12 50 ng/mL, 24 h. The protocol: as §1
Assay [1] deals with leukemia cells HL-60 and U937 cells. Particulars: 24 h. The protocol: The effect of E5 polypeptide on the apoptosis of leukemia cells HL-60 and U937 cells was examined by FITC-Annexin V/PI (eBioscience, Australia) double-staining assay. HL-60 and U937 cells were harvested in logarithmic growth phase. The cell suspensions and E5 aqueous solutions at different concentrations were added to 24-well plates. After incubation for 24 h, the cells were collected and washed with PBS. FITC-Annexin V and PI were added after the cells were resuspended in a binding buffer (10 mM Hepes/NaOH, pH 7.4, 140 mM NaCl, 2.5 mM CaCl2). After incubating for 10 min at room temperature, 1.5×10^4 cells were analyzed by flow cytometer (Accuri C6, BD, USA).

In assay [2] the test system is NOD/SCID mice transplanted with HL-60 cells. To be noted: 30 mg/kg subcutaneous, twice a week from day 20 after transplantation. The protocol: The 5-week-old female NOD/SCID mice (purchased from the Animal Experimental Center of the Institute of Basic Medical Science, Chinese Academy of Medical Sciences) cultured in a special sterile environment were used. Prior to the experiment, animals should be acclimated to the laboratory environment for 1 week. 1×10^6 HL-60 cells were suspended in 100 μL ethylene diamine tetracetic acid sodium (EDTA)/PBS and injected intravenously into NOD/SCID mice subjected to sub-lethal irradiation (250 cGy). […] From day 20 after transplantation, the mice were injected with E5 (30 mg/kg, n=9), cyclophosphamide (CTX, 36 mg/kg, n=9), or sterile water (n=8) respectively twice a week to observe the state and weight changes of the mice, wherein E5 and sterile water were injected into mice by subcutaneous injection and cyclophosphamide was injected into mice by intraperitoneal injection.

Where two headings read alike, the source gives them in different places. No end group written: not given here. *: point of attachment. Biotin = O=C1N[C@H]2[C@H](CS[C@H]2CCCCC(=O)*)N1

With Biotin-GGRSFFLLRRIQGCRFRNTVDD [E5], the results for the “decrease of migration ability of HL-60 cells (longitudinal)” value in the assay with HL-60 cells (0.1 μM), in the assay with HL-60 cells (1.0 μM) and in the assay with HL-60 cells (10 μM) were 35.00%, 39.00% and 64.00%, respectively. Besides, the “decrease of migration ability of U937 cells (longitudinal)” value with U937 cells (0.1 μM) was found to be 17.00%; in the assay with U937 cells (1.0 μM) it was 23.00%; in the assay with U937 cells (10 μM), 20.00%. Further, the “apoptosis rate of leukemia cells” value in assay [1] (50 μM) was 10%; in assay [1] (80 μM), 22%; in assay [1] (concentration higher than 20 μM) it was “increased rapidly”. Moreover, in assay [1] (concentration below 20 μM), the “effect on apoptosis of leukemia cells HL-60 and U937 cells” value is “negligible”. In addition, the “survival time of mice versus cyclophosphamide group and control group” value in assay [2] was “longer survival time”. Also, in assay [2], the “weight of mice versus cyclophosphamide group and control group” value is “much higher”.
